Test results from PubChem BioAssay (NCI).
Several values for one entry are separate records, joined by “and”; a condition that tells them apart may be missing. Equal values may be shown once.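 Briefly, cells in 96-well plates were exposed to five compound concentrations for 48 h, and endpoints were estimated by linear interpolation. The concentration for 50% growth inhibition is given as GI50. Definition used: TGI = concentration required for complete inhibition of growth.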

Tests used:
Assay in all cases: growth of human tumour cells (NCI), 48 h
HL-60(TB) leukemia = tested on: HL-60(TB) leukemia
IGROV1 ovarian = tested on: IGROV1 ovarian
K-562 leukemia = tested on: K-562 leukemia
LOX IMVI melanoma = tested on: LOX IMVI melanoma
MOLT-4 leukemia = tested on: MOLT-4 leukemia
RPMI-8226 leukemia = tested on: RPMI-8226 leukemia
SF-539 CNS = tested on: SF-539 CNS
SK-OV-3 ovarian = tested on: SK-OV-3 ovarian
HOP-92 NSCLC = tested on: HOP-92 NSCLC
PC-3 prostate = tested on: PC-3 prostate

Row | Compound | TGI (HL-60(TB) leukemia) | TGI (IGROV1 ovarian) | TGI (K-562 leukemia) | TGI (LOX IMVI melanoma) | TGI (MOLT-4 leukemia) | TGI (RPMI-8226 leukemia) | TGI (SF-539 CNS) | TGI (SK-OV-3 ovarian) | TGI (HOP-92 NSCLC) | GI50 (IGROV1 ovarian) | GI50 (K-562 leukemia) | GI50 (LOX IMVI melanoma) | GI50 (MOLT-4 leukemia) | GI50 (PC-3 prostate) | TGI (PC-3 prostate) | GI50 (RPMI-8226 leukemia) | GI50 (SK-OV-3 ovarian) | GI50 (HL-60(TB) leukemia) | GI50 (SF-539 CNS)
1 | c1ccc(C2CC(c3ccc4ccccc4c3)=Nc3ccccc3S2)cc1 (stereo unspecified) | 55.9 µM | 49 µM | 59.3 µM | 29.5 µM | > 100 µM | > 100 µM | 31.5 µM | 80.9 µM |  |  |  |  |  |  |  |  |  |  | 
2 | O=C1C=C(Nc2ccc(S(=O)(=O)Nc3ncccn3)cc2)c2ccccc2C1=O | 72.7 µM | 58 µM | 49.4 µM | 30 µM | > 100 µM | 97.2 µM | 58.4 µM | 90.7 µM | 94 µM |  |  |  |  |  |  |  |  |  | 
3 | Cc1ccc(O)c(NC2=C(Cl)C(=O)N(Cc3ccccc3)C2=O)c1 |  | 24.2 µM | 59.6 µM | 45.7 µM | 74.2 µM | 36.6 µM |  | > 100 µM |  | 6.44 µM | 12.4 µM | 20.3 µM | 1.55 µM | 38.7 µM | > 100 µM | 7.7 µM | 80.5 µM |  | 
4 | Clc1ccc(OCc2nnc3n2N=C(c2ccccc2)CS3)c(Cl)c1 | > 100 µM | > 100 µM | > 100 µM | 5.87 µM | > 100 µM |  | 91.1 µM | > 100 µM | > 100 µM |  |  |  |  |  |  |  |  |  | 
5 | C=Cc1c(C)c2cc3[nH]c(cc4nc(cc5nc(cc1[nH]2)C(C)=C5CCC(=O)N(CC)CC)C(CCC(=O)N(CC)CC)=C4C)c(C)c3C=C | > 100 µM | > 100 µM | > 100 µM | > 100 µM | > 100 µM |  | > 100 µM | > 100 µM | > 100 µM |  |  |  |  |  |  |  |  |  | 
6 | CNCCCNc1c2ccccc2nc2cccc([N+](=O)[O-])c12 |  | 0.0201 µM and 0.0279 µM |  | 0.016 µM |  |  | 0.0163 µM and 0.0172 µM | 0.0427 µM | 0.00423 µM |  |  |  |  |  | 0.00489 µM |  |  |  | 
7 | COc1cc(NC(C)CCCNC(C)C)c2ncccc2c1OC (stereo unspecified) | 72.4 µM | 44.3 µM | > 100 µM | > 100 µM | > 100 µM |  | > 100 µM | > 100 µM |  | 13.4 µM | 32.8 µM | > 100 µM | > 100 µM |  |  |  | > 100 µM | 14.2 µM | > 100 µM
8 | COC(=O)CC(=O)NCC1=CCC(=O)CC1 | > 100 µM | > 100 µM | > 100 µM | > 100 µM | > 100 µM | > 100 µM | > 100 µM | > 100 µM | > 100 µM |  |  |  |  |  |  |  |  |  | 
9 | NC(=S)N/N=C1/CN(c2ccc(Cl)c(Cl)c2)CC(=O)C1c1nc2ccccc2s1 (stereo unspecified) | > 100 µM | > 100 µM | > 100 µM | > 100 µM |  | > 100 µM | > 100 µM | > 100 µM | > 100 µM |  |  |  |  |  |  |  |  |  | 
10 | CN(C)CCCCCNc1c2ccccc2nc2cccc([N+](=O)[O-])c12 | > 0.1 µM | 0.00655 µM | > 0.0945 µM | 0.0113 µM | > 0.1 µM | > 0.1 µM and 0.0188 µM | 0.00979 µM and 0.0157 µM | > 0.0245 µM | 0.00895 µM | 0.00621 µM | 0.00212 µM |  | 0.00627 µM |  |  |  |  | 0.00266 µM | 
11 | CCN(CC)c1ccc(/C=N/NC(=O)CSc2nc3ccccc3c(=O)n2Cc2ccc(S(N)(=O)=O)cc2)c(O)c1 | 5.38 µM | > 100 µM | > 100 µM | 10.5 µM | > 100 µM | 4.85 µM | > 100 µM | > 100 µM |  | 0.785 µM | 0.592 µM | 0.387 µM | 0.372 µM | 0.829 µM | > 100 µM | 0.521 µM | 1.32 µM | 0.412 µM | 1.26 µM
12 | CC1=C(C(=O)Nc2ccccc2)C(c2cc(Cl)cc(Cl)c2)C(C(=O)Nc2ccccc2)=C(C)N1 | 6.52 µM | 41.9 µM | 13.6 µM | 24.6 µM | 18.1 µM | 25.2 µM | 32.8 µM | 98.7 µM |  |  |  |  |  |  |  |  |  |  | 
13 | CC(C)C(=S)N(C)O | > 24.2 µM | > 100 µM | > 100 µM | 62.5 µM | > 24.7 µM | > 52.6 µM | 89.7 µM | > 100 µM | > 100 µM |  |  |  |  |  |  |  |  |  | 
14 | C1CC2=C(C1)C1=S(S2)SC2=C1CCC2 | > 100 µM | > 100 µM | > 100 µM | > 100 µM | > 100 µM | > 100 µM | > 100 µM | > 100 µM | > 100 µM |  |  |  |  |  |  |  |  |  | 
15 | c1cc[c]([Sn]([O]c2cccc3cccnc23)([O]c2cccc3cccnc23)[c]2ccccc2)cc1 | 0.351 µM | 3.06 µM | 0.631 µM | 0.424 µM | 0.429 µM |  | 1.32 µM | 3.24 µM |  | 1.55 µM | 0.221 µM | 0.198 µM | 0.203 µM |  |  |  | 1.83 µM | 0.144 µM | 0.385 µM
16 | O=C(/C(=N/Nc1ccccc1)c1ccc([N+](=O)[O-])cc1)c1ccc([N+](=O)[O-])cc1 |  | > 100 µM | > 100 µM |  | > 100 µM | > 100 µM | > 100 µM | > 100 µM | > 100 µM |  |  |  |  |  |  |  |  |  | 
17 | CCOC(=O)C1=C(C(=O)OCC)C2(c3ccccc3)N(O1)c1ccccc1C2(C)C (stereo unspecified) | 53 µM | > 100 µM | > 100 µM |  | > 100 µM | 57.3 µM | > 100 µM | 95.2 µM |  |  |  |  |  |  |  |  |  |  | 
18 | C/C(O)=C(\N=O)C(=O)NCc1ccccc1 | > 100 µM | > 100 µM | > 100 µM | 36.6 µM | > 100 µM | > 100 µM | > 100 µM | > 100 µM | > 100 µM |  |  |  |  |  |  |  |  |  | 
19 | CCC(C)(O)c1cn(-c2ccc(S(=O)(=O)O)cc2)nn1 (stereo unspecified) | > 100 µM | > 100 µM | > 100 µM | > 100 µM | > 100 µM | > 100 µM | > 100 µM | > 100 µM | > 100 µM |  |  |  |  |  |  |  |  |  | 
20 | C/C(CC(=O)Nc1ccc(NC(=O)C/C(C)=N\NC(N)=O)cc1)=N/NC(N)=O | > 100 µM | > 100 µM | > 100 µM | > 60.1 µM | 97.8 µM | 55.5 µM | > 100 µM | > 100 µM | > 100 µM |  |  |  |  |  |  |  |  |  | 
